Data published in US9402878B2, “Depsipeptide and uses thereof” (priority 2012, dated 2016).
In brackets after ≈: the same amount, converted by molar mass. Read-outs that look alike come from different tables or passages of the source.

Experiments:
[1] = test system: Streptococcus pneumoniae ATCC 6301 (UNT012-2); assay: Immunocompetent mouse pneumonia model; assay type: in vivo
Description: The compound of Formula (II) was then evaluated against Streptococcus pneumoniae in an immunocompetent mouse pneumonia model to determine the compound's potential to treat acute respiratory infections. Briefly, CD-1 mice were infected intranasally with Streptococcus pneumoniae ATCC 6301 (UNT012-2) (1.5×10^6 CFU/mouse). The compound was delivered intravenously at 24 and 36 hours post-infection, and at doses ranging from 0.5 to 10 mg/kg/dose. At 48 hours post infection, treated mice were euthanized, lungs aseptically removed and processed for CFU titers

[2] = test system: Staphylococcus aureus Linezolid^R; assay: MIC against contemporary clinical isolates; details: Linezolid^R (n = 5)
[3] = test system: Staphylococcus aureus MRSA; assay: MIC against contemporary clinical isolates; details: for % S (CLSI % susceptible) / MIC Range: MRSA (n = 20); for MIC50 / MIC90: Staphylococcus aureus, MRSA
[4] = test system: Staphylococcus aureus MSSA; assay: MIC against contemporary clinical isolates; details: for % S (CLSI % susceptible) / MIC Range: MSSA (n = 20); for MIC50 / MIC90: Staphylococcus aureus, MSSA
[5] = test system: Streptococcus pyogenes; assay: MIC against contemporary clinical isolates; details: for MIC50 / MIC90: Streptococcus pyogenes; for % S (CLSI % susceptible) / MIC Range: n = 10
[6] = test system: Staphylococcus epidermidis; assay: MIC against contemporary clinical isolates; details: for MIC50 / MIC90: Staphylococcus epidermidis; for % S (CLSI % susceptible) / MIC Range: n = 20
[7] = test system: Enterococcus faecium; assay: MIC against contemporary clinical isolates; details: for % S (CLSI % susceptible) / MIC Range: n = 10, 50% VRE
[8] = test system: Streptococcus pneumoniae; assay: MIC against contemporary clinical isolates; details: for MIC50 / MIC90: Streptococcus pneumoniae, PRSP; for MIC Range / % S (CLSI % susceptible): n = 20, 28.6% PSSP, 33.3% PISP, 38.1% PRSP
[9] = test system: Viridans Group Streptococci; assay: MIC against contemporary clinical isolates; details: n = 5
[10] = test system: Enterococcus faecalis; assay: MIC against contemporary clinical isolates; details: for % S (CLSI % susceptible) / MIC Range: n = 10, 50% VRE
[11] = test system: Staphylococcus aureus VISA; assay: MIC against contemporary clinical isolates; details: for MIC50 / MIC90: Staphylococcus aureus, VISA; for % S (CLSI % susceptible) / MIC Range: VISA (n = 10)
[12] = test system: Streptococcus agalactiae; assay: MIC against contemporary clinical isolates; details: for MIC50 / MIC90: Streptococcus agalactiae; for % S (CLSI % susceptible) / MIC Range: n = 10
[13] = test system: Staphylococcus aureus Daptomycin^NS; assay: MIC against contemporary clinical isolates; details: Daptomycin^NS (n = 5)
[14] = test system: Bacillus anthracis; assay type: cell-based
[15] = biological target: CYP2D6 (Homo sapiens (Human), UniProt P10635); assay: in vitro; details: liver microsomes, pH 7.4
CYP2D6, sequence (P10635 whole entry, looked up): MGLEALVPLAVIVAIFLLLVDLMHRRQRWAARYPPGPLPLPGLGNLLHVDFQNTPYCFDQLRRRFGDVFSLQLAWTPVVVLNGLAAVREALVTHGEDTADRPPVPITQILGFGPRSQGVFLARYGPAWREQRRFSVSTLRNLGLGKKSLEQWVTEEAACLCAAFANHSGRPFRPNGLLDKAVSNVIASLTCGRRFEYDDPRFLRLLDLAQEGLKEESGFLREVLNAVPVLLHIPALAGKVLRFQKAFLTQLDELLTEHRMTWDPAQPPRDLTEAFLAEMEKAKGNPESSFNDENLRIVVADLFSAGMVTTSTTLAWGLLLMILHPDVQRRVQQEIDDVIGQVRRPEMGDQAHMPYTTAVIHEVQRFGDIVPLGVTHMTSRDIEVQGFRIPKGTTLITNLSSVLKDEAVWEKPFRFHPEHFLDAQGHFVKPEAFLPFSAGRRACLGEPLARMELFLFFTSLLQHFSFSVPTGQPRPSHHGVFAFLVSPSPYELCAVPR

[16] = test system: S. aureus MRSA ATCC 33591; assay: Mouse septicemia protection assay; assay type: in vivo; details: CD-1 female mice, IV, QD single dose one hour post infection, survival after 48 hrs
Description: CD-1 female mice were infected with 0.5 mL of bacterial suspension (3.28×10^7 CFU/mouse) via intraperitoneal injection, a concentration that achieves at least 90% mortality within 48 hours after infection. At one hour post infection, mice were treated with the compound intravenously with single doses and the results are shown in Table 12.

## CC1(C)S[C@@H]2[C@H](NC(=O)[C@H](N)c3ccc(O)cc3)C(=O)N2[C@H]1C(=O)O [Amoxicillin]
[1]; 10 mg/kg/dose
  Log10 change from 24 hrs: −3.98 Log10
  Log10 change from 48 hrs: −5.83 Log10
[1]; 10 mg/kg/dose IV at 24 and 36 hours post-infection, lungs at 48 hours
  Mean Log10 CFU: 2.78 Log10 CFU

## CCCCCCCCCC(=O)N[C@@H](Cc1c[nH]c2ccccc12)C(=O)N[C@H](CC(N)=O)C(=O)N[C@@H](CC(=O)O)C(=O)N[C@@H]1C(=O)NCC(=O)N[C@@H](CCCN)C(=O)N[C@@H](CC(=O)O)C(=O)N[C@H](C)C(=O)N[C@@H](CC(=O)O)C(=O)NCC(=O)N[C@H](CO)C(=O)N[C@@H]([C@H](C)CC(=O)O)C(=O)N[C@@H](CC(=O)c2ccccc2N)C(=O)O[C@@H]1C [Daptomycin]
[2]
  % S (CLSI % susceptible): 100.0%
  MIC Range: 0.25 to 0.5 µg/mL
[3]
  % S (CLSI % susceptible): 100.0%
  MIC Range: 0.12 to 0.25 µg/mL
  MIC50: 0.25 µg/mL (≈ 0.154 µM)
  MIC90: 0.25 µg/mL (≈ 0.154 µM)
[4]
  % S (CLSI % susceptible): 100.0%
  MIC Range: 0.12 to 0.25 µg/mL
  MIC50: 0.25 µg/mL (≈ 0.154 µM)
  MIC90: 0.25 µg/mL (≈ 0.154 µM)
[5]
  MIC50: ≤ 0.03 µg/mL
  MIC90: 0.06 µg/mL (≈ 0.037 µM)
  % S (CLSI % susceptible): 100.0%
  MIC Range: ≦0.03-0.06^ μg/mL
[6]
  MIC50: 0.12 µg/mL (≈ 0.074 µM)
  MIC90: 0.25 µg/mL (≈ 0.154 µM)
  % S (CLSI % susceptible): 100.0%
  MIC Range: 0.06 to 0.25 µg/mL
[7]
  MIC50: 0.5 µg/mL (≈ 0.309 µM)
  MIC90: 1 µg/mL (≈ 0.617 µM)
  % S (CLSI % susceptible): 100.0%
  MIC Range: 0.5-1^ μg/mL
[8]
  MIC50: ≤ 0.03 µg/mL
  MIC90: ≤ 0.03 µg/mL
  MIC Range: ≦0.03-0.06^ μg/mL
[9]
  % S (CLSI % susceptible): 100.0%
  MIC Range: 0.06 to 0.25 µg/mL
[10]
  MIC50: 0.25 µg/mL (≈ 0.154 µM)
  MIC90: 0.5 µg/mL (≈ 0.309 µM)
  % S (CLSI % susceptible): 90.0%
  MIC Range: 0.12 to 8 µg/mL
[11]
  MIC50: 0.5 µg/mL (≈ 0.309 µM)
  MIC90: 1 µg/mL (≈ 0.617 µM)
  % S (CLSI % susceptible): 100.0%
  MIC Range: 0.25 to 1 µg/mL
[12]
  MIC50: 0.12 µg/mL (≈ 0.074 µM)
  MIC90: 0.12 µg/mL (≈ 0.074 µM)
  % S (CLSI % susceptible): 100.0%
  MIC Range: 0.06 to 0.25 µg/mL
[13]
  % S (CLSI % susceptible): 0.0%
  MIC Range: 2 to 8 µg/mL

## C[C@H]1c2cccc(O)c2C(=O)C2=C(O)[C@]3(O)C(=O)C(C(N)=O)=C(O)[C@@H](N(C)C)[C@@H]3[C@@H](O)[C@@H]21 [Doxycycline]
[14]; B. anthracis NR-36
  MIC: 0.06 µg/mL (≈ 0.135 µM)
[14]; B. anthracis NR-38
  MIC: 0.125 µg/mL (≈ 0.281 µM)
[14]; B. anthracis NR-41
  MIC: 0.06 µg/mL (≈ 0.135 µM)
[14]; B. anthracis NR-46
  MIC: 0.125 µg/mL (≈ 0.281 µM)
[14]; B. anthracis NR-411
  MIC: 0.125 µg/mL (≈ 0.281 µM)
[14]; B. anthracis NR-412
  MIC: 0.03 µg/mL (≈ 0.0675 µM)
[14]; B. anthracis NR-413
  MIC: 0.06 µg/mL (≈ 0.135 µM)
[14]; B. anthracis NR-414
  MIC: 0.125 µg/mL (≈ 0.281 µM)
[14]; B. anthracis NR-415
  MIC: 0.06 µg/mL (≈ 0.135 µM)
[14]; B. anthracis NR-3838
  MIC: 0.06 µg/mL (≈ 0.135 µM)

## CC(=O)NC[C@H]1CN(c2ccc(N3CCOCC3)c(F)c2)C(=O)O1 [Linezolid]
[2]
  % S (CLSI % susceptible): 0.0%
[3]
  % S (CLSI % susceptible): 100.0%
  MIC Range: 2 to 4 µg/mL
  MIC50: 2 µg/mL (≈ 5.93 µM)
  MIC90: 4 µg/mL (≈ 11.9 µM)
[4]
  % S (CLSI % susceptible): 100.0%
  MIC Range: 2 to 4 µg/mL
  MIC50: 2 µg/mL (≈ 5.93 µM)
  MIC90: 4 µg/mL (≈ 11.9 µM)
[5]
  MIC50: 1 µg/mL (≈ 2.96 µM)
  MIC90: 1 µg/mL (≈ 2.96 µM)
  % S (CLSI % susceptible): 100.0%
  MIC Range: 0.5-1^ μg/mL
[6]
  MIC50: 2 µg/mL (≈ 5.93 µM)
  MIC90: 2 µg/mL (≈ 5.93 µM)
  % S (CLSI % susceptible): 100.0%
  MIC Range: 1 to 4 µg/mL
[7]
  MIC50: 2 µg/mL (≈ 5.93 µM)
  MIC90: 2 µg/mL (≈ 5.93 µM)
  % S (CLSI % susceptible): 100.0%
  MIC Range: 1 to 2 µg/mL
[8]
  MIC50: 1 µg/mL (≈ 2.96 µM)
  MIC90: 1 µg/mL (≈ 2.96 µM)
  % S (CLSI % susceptible): 100.0%
  MIC Range: 0.25 to 1 µg/mL
[9]
  % S (CLSI % susceptible): 100.0%
  MIC Range: 0.5-1^ μg/mL
[10]
  MIC50: 2 µg/mL (≈ 5.93 µM)
  MIC90: 2 µg/mL (≈ 5.93 µM)
  % S (CLSI % susceptible): 100.0%
  MIC Range: 1 to 2 µg/mL
[11]
  MIC50: 2 µg/mL (≈ 5.93 µM)
  MIC90: 2 µg/mL (≈ 5.93 µM)
  % S (CLSI % susceptible): 100.0%
  MIC Range: 1 to 4 µg/mL
[12]
  MIC50: 1 µg/mL (≈ 2.96 µM)
  MIC90: 1 µg/mL (≈ 2.96 µM)
  % S (CLSI % susceptible): 100.0%
  MIC Range: 0.5-2^ μg/mL
[13]
  % S (CLSI % susceptible): 80.0%
  MIC Range: 1 to 32 µg/mL

## C=C[C@H]1C[N@@]2CC[C@H]1C[C@@H]2[C@@H](O)c1ccnc2ccc(OC)cc12 [Quinidine]
[15]
  inhibition at 10 min, 0.1 µM: 60.6%
  inhibition at 10 min, 1 µM: 91.7%

## CN[C@H](CC(C)C)C(=O)N[C@H]1C(=O)N[C@@H](CC(N)=O)C(=O)N[C@H]2C(=O)N[C@H]3C(=O)N[C@H](C(=O)N[C@H](C(=O)O)c4cc(O)cc(O)c4-c4cc3ccc4O)[C@H](O)c3ccc(c(Cl)c3)Oc3cc2cc(c3O[C@@H]2O[C@H](CO)[C@@H](O)[C@H](O)[C@H]2O[C@H]2C[C@](C)(N)[C@H](O)[C@H](C)O2)Oc2ccc(cc2Cl)[C@H]1O [Vancomycin]
[16]
  PD50: ~2.75 mg/kg
[16]; listed as vancomycin
  PD50: ~2.75 mg/kg
[2]
  % S (CLSI % susceptible): 100.0%
  MIC Range: 1 µg/mL (≈ 0.69 µM)
[3]
  % S (CLSI % susceptible): 100.0%
  MIC Range: 0.5-2^ μg/mL
  MIC50: 0.5 µg/mL (≈ 0.345 µM)
  MIC90: 1 µg/mL (≈ 0.69 µM)
[4]
  % S (CLSI % susceptible): 100.0%
  MIC Range: 0.5-1^ μg/mL
  MIC50: 0.5 µg/mL (≈ 0.345 µM)
  MIC90: 1 µg/mL (≈ 0.69 µM)
[5]
  MIC50: 0.25 µg/mL (≈ 0.173 µM)
  MIC90: 0.25 µg/mL (≈ 0.173 µM)
  % S (CLSI % susceptible): 100.0%
  MIC Range: 0.25 µg/mL (≈ 0.173 µM)
[6]
  MIC50: 2 µg/mL (≈ 1.38 µM)
  MIC90: 2 µg/mL (≈ 1.38 µM)
  % S (CLSI % susceptible): 100.0%
  MIC Range: 1 to 2 µg/mL
[7]
  MIC50: 0.5 µg/mL (≈ 0.345 µM)
  MIC90: > 32 µg/mL
  % S (CLSI % susceptible): 50.0%
[8]
  MIC50: 0.25 µg/mL (≈ 0.173 µM)
  MIC90: 0.25 µg/mL (≈ 0.173 µM)
  % S (CLSI % susceptible): 100.0%
  MIC Range: 0.12 to 0.5 µg/mL
[9]
  % S (CLSI % susceptible): 100.0%
  MIC Range: 0.25 to 0.5 µg/mL
[10]
  MIC50: 1 µg/mL (≈ 0.69 µM)
  MIC90: > 32 µg/mL
  % S (CLSI % susceptible): 50.0%
[11]
  MIC50: 4 µg/mL (≈ 2.76 µM)
  MIC90: 8 µg/mL (≈ 5.52 µM)
  % S (CLSI % susceptible): 10.0%
  MIC Range: 1 to 8 µg/mL
[12]
  MIC50: 0.5 µg/mL (≈ 0.345 µM)
  MIC90: 0.5 µg/mL (≈ 0.345 µM)
  % S (CLSI % susceptible): 100.0%
  MIC Range: 0.25 to 0.5 µg/mL
[13]
  % S (CLSI % susceptible): 40.0%
  MIC Range: 0.5-8^ μg/mL
